pKi: −log10 of the molar value.

Ki data for 15 molecules are collected here from patent US10189836B2, “Therapeutic compounds, compositions and methods of use thereof” (Genentech, Inc., priority 2015, dated 2019).

Assay [1] addresses isolated recombinant JAK1 kinase domain (Homo sapiens (Human), UniProt P23458). Description: JAK1 enzyme assay (Caliper LabChip, Ki). It counts as biochemical. The note with it: isolated recombinant JAK1 kinase domain, 1.5 nM enzyme, ATP 25 μM.
Assay [2] has as its target isolated recombinant JAK2 kinase domain (Homo sapiens (Human), UniProt O60674). Briefly: JAK2 enzyme assay (Caliper LabChip, Ki). It counts as biochemical. The note with it: isolated recombinant JAK2 kinase domain, 0.2 nM enzyme, ATP 25 μM.

isolated recombinant JAK2 kinase domain, sequence (O60674 849-1124): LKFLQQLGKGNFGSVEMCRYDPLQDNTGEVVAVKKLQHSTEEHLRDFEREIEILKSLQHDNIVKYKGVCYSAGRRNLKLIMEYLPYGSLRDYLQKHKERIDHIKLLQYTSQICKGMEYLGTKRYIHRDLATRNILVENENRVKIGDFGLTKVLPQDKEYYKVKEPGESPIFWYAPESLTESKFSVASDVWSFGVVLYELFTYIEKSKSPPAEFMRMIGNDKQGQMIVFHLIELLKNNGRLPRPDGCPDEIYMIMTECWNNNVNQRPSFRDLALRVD
isolated recombinant JAK1 kinase domain, sequence (P23458 875-1153): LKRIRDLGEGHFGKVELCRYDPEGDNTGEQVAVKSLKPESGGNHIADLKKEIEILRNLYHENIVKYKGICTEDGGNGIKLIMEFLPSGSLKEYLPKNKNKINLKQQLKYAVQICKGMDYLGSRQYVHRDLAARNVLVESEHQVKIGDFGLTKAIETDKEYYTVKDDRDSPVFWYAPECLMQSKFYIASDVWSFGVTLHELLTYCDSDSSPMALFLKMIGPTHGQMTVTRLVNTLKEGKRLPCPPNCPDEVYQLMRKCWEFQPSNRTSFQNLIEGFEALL

As for `CC(C(=O)N1CCN(C)CC1)n1cc(Nc2nc3c(N4CC5CCC(C4)N5C(=O)C4CC(C(F)(F)F)C4)cccn3n2)cn1` (stereo not drawn) [Example 126, 1-(4-methylpiperazin-1-yl)-2-[4-[[8-[8-(3-(trifluoromethyl)-cyclobutanecarbonyl]-3,8-diazabicyclo[3.2.1]octan-3-yl]-[1,2,4]triazolo[1,5-a]pyridin-2-yl]amino]pyrazol-1-yl]propan-1-one], the figures for the pKi in assay [1] and in assay [2] were 8.60 and 8.80, respectively.
In the same order, the values of `CN1CCN(C(=O)Cn2cc(Nc3nc4c(N5C[C@H]6CC[C@@H](C5)[C@H]6N(C)CCC(F)(F)F)cccn4n3)cn2)CC1` [Example 127, 1-(4-methylpiperazin-1-yl)-2-[4-[[8-[(1S,5R)-8-[methyl(3,3,3-trifluoropropyl)amino]-3-azabicyclo[3.2.1]octan-3-yl]-[1,2,4]triazolo[1,5-a]pyridin-2-yl]amino]pyrazol-1-yl]ethanone] are 8.34 and 7.94.
In the same order, the values of `CN1CCN(C(=O)Cn2cc(Nc3nc4c(N5C[C@H]6CC[C@@H](C5)[C@H]6OCc5ccc(C#N)cc5)cccn4n3)cn2)CC1` [Example 128, 4-[[(1S,5R)-3-[2-[[1-[2-(4-methylpiperazin-1-yl)-2-oxo-ethyl]pyrazol-4-yl]amino]-[1,2,4]triazolo[1,5-a]pyridin-8-yl]-3-azabicyclo[3.2.1]octan-8-yl]oxymethyl]benzonitrile] are 9.40 and 9.00.
In the same order, the values of `CN1CCN(C(=O)Cn2cc(Nc3nc4c(N5C[C@H]6CC[C@@H](C5)[C@H]6OCc5cccc(C#N)c5)cccn4n3)cn2)CC1` [Example 129, 3-[[(1S,5R)-3-[2-[[1-[2-(4-methylpiperazin-1-yl)-2-oxo-ethyl]pyrazol-4-yl]amino]-[1,2,4]triazolo[1,5-a]pyridin-8-yl]-3-azabicyclo[3.2.1]octan-8-yl]oxymethyl]benzonitrile] are 9.22 and 8.64.
As for `CC(C)(C#N)CNC1CCN(C(=O)Cn2cc(Nc3nc4c(N5CC6CCC(C5)N6C(=O)N5CC(C(F)(F)F)C5)cccn4n3)cn2)CC1` [Example 131, 2,2-dimethyl-3-[[1-[2-[4-[[8-[8-[3-(trifluoromethyl)azetidine-1-carbonyl]-3,8-diazabicyclo[3.2.1]octan-3-yl]-[1,2,4]triazolo[1,5-a]pyridin-2-yl]amino]pyrazol-1-yl]acetyl]-4-piperidyl]amino]-propanenitrile], the pKi in assay [1] is 8.96; in assay [2] it was 9.15.
Taken in the same sequence, the figures for `CSc1ccccc1S(=O)(=O)N1C2CCC1CN(c1cccn3nc(Nc4cnn(CC(=O)N5CCN(C)CC5)c4)nc13)C2` [Example 132, 1-(4-methylpiperazin-1-yl)-2-[4-[[8-[8-(2-methylsulfanylphenyl)sulfonyl-3,8-diazabicyclo[3.2.1]octan-3-yl]-[1,2,4]triazolo[1,5-a]pyridin-2-yl]amino]pyrazol-1-yl]ethanone] were 9.40 and 9.40.
For the molecule `CN1CCN(C(=O)Cn2cc(Nc3nc4c(N5CC6CCC(C5)N6S(=O)(=O)c5cccc(C(F)(F)F)c5)cccn4n3)cn2)CC1` [Example 133, 1-(4-methylpiperazin-1-yl)-2-[4-[[8-[8-(3-(trifluoromethyl)phenyl]sulfonyl-3,8-diazabicyclo[3.2.1]octan-3-yl]-[1,2,4]triazolo[1,5-a]pyridin-2-yl]amino]pyrazol-1-yl]ethanone], the pKi in assay [1] is 9.10; in assay [2], 8.82.
As for `CN1CCN(C(=O)Cn2cc(Nc3nc4c(N5CC6CCC(C5)N6S(=O)(=O)c5ccc(F)cc5)cccn4n3)cn2)CC1` [Example 134, 2-[4-[[8-[8-(4-fluorophenyl)sulfonyl-3,8-diazabicyclo[3.2.1]octan-3-yl]-[1,2,4]triazolo[1,5-a]pyridin-2-yl]amino]pyrazol-1-yl]-1-(4-methylpiperazin-1-yl)ethanone], the negative logarithm of the Ki (pKi) in assay [1] is 9.40; in assay [2], 9.30.
Taken in the same sequence, the figures for `CN1CCN(C(=O)Cn2cc(Nc3nc4c(N5CC6CCC(C5)N6S(=O)(=O)c5ccc(C(F)(F)F)cc5)cccn4n3)cn2)CC1` [Example 135, 1-(4-methylpiperazin-1-yl)-2-[4-[[8-[8-(4-(trifluoromethyl)phenyl]sulfonyl-3,8-diazabicyclo[3.2.1]octan-3-yl]-[1,2,4]triazolo[1,5-a]pyridin-2-yl]amino]pyrazol-1-yl]ethanone] were 9.70 and 9.40.
Taken in the same sequence, the figures for `CN1CCN(C(=O)Cn2cc(Nc3nc4c(N5CC6CCC(C5)N6S(=O)(=O)c5ccc(Cl)cc5F)cccn4n3)cn2)CC1` [Example 136, 2-[4-[[8-[8-(4-chloro-2-fluoro-phenyl)sulfonyl-3,8-diazabicyclo[3.2.1]octan-3-yl]-[1,2,4]triazolo[1,5-a]pyridin-2-yl]amino]pyrazol-1-yl]-1-(4-methylpiperazin-1-yl)ethanone] were 8.70 and 8.21.
In the same order, the values of `CN1CCN(C(=O)Cn2cc(Nc3nc4c(N5CC6CCC(C5)N6Cc5ccccc5F)cccn4n3)cn2)CC1` [Example 137, 2-(4-((8-((1R,5 S)-8-(2-fluorobenzyl)-3,8-diazabicyclo[3.2.1]octan-3-yl)-[1,2,4]triazolo[1,5-a]pyridin-2-yl)amino)-1H-pyrazol-1l-yl)-1-(4-methylpiperazin-1-yl)ethan-1-one] are 9.00 and 9.15.
In the case of `Cc1ncc(S(=O)(=O)N2C3CCC2CN(c2cccn4nc(Nc5cnn(CC(=O)N6CCN(C)CC6)c5)nc24)C3)s1` [Example 138, 1-(4-methylpiperazin-1-yl)-2-[4-[[8-[8-(2-methylthiazol-5-yl)sulfonyl-3,8-diazabicyclo[3.2.1]octan-3-yl]-[1,2,4]triazolo[1,5-a]pyridin-2-yl]amino]pyrazol-1-yl]ethanone], the pKi in assay [1] was 9.15; in assay [2] it was 9.10.
Taken in the same sequence, the figures for `Cc1cc(S(=O)(=O)N2C3CCC2CN(c2cccn4nc(Nc5cnn(CC(=O)N6CCN(C)CC6)c5)nc24)C3)sn1` [Example 139, 2-[4-[[8-[8-(3-yl)sulfonyl-3,8-diazabicyclo[3.2.1]octan-3-yl]-[1,2,4]triazolo[1,5-a]pyridin-2-yl]amino]pyrazol-1-yl]-1-(4-methylpiperazin-1-yl)ethanone] were 9.10 and 9.22.
In the same order, the values of `CN1CCN(C(=O)Cn2cc(Nc3nc4c(N5CC6CCC(C5)N6C(=O)c5ccccc5C#N)cccn4n3)cn2)CC1` [Example 140, 2-[3-[2-[[1-[2-(4-methylpiperazin-1-yl)-2-oxo-ethyl]pyrazol-4-yl]amino]-[1,2,4]triazolo[1,5-a]pyridin-8-yl]-3,8-diazabicyclo[3.2.1]octane-8-carbonyl]benzonitrile] are 9.40 and 9.10.
In the same order, the values of `CN1CCN(C(=O)Cn2cc(Nc3nc4c(N5CC6CCC(C5)N6C(=O)N5CC(O)(C(F)(F)F)C5)cccn4n3)cn2)CC1` [Example 141, 2-[4-[[8-[8-[3-hydroxy-3-(trifluoromethyl)azetidine-1-carbonyl]-3,8-diazabicyclo[3.2.1]octan-3-yl]-[1,2,4]triazolo[1,5-a]pyridin-2-yl]amino]pyrazol-1-yl]-1-(4-methylpiperazin-1-yl)ethanone] are 9.70 and 9.52.

As a reminder, the pKi is −log10 of the Ki, conventionally taken in molar units.
